From patent publication US5744424A
Converted amounts (≈) assume the structure as drawn.

Key:
[1] = water; 18° C.; cited from earlier work
physchem [2] = test: physchem
From the text: where Percent "S" is the per unit volume of N^6 BA expressed as a percentage and "N" is the Normality of the solution after dissolution of N^6 BA in the solution.

plant species = conditions: cited from earlier work
physchem [3] = conditions: water koh 0.0025 n
From the text: The solubility data enable address a second underlying problem encountered when the aqueous hydroxide solution is employed.

turf grasses = test: Force required to extract grass sod plugs (root density, FIG. 4)
[4] = cited from earlier work
[5] = cited from earlier work; remark: listed apart in the source

SMILES: [Na+].[OH-] [NaOH, sodium hydroxide]
- normality of saturated solution [1]: 21.0

SMILES: [K+].[OH-] [KOH, potassium hydroxide]
- normality of saturated solution [1]: 18.0

SMILES: c1ccc(CNc2ncnc3nc[nH]c23)cc1 [N^6 BA]
- solubility (physchem [2]; aqueous koh 2.875 n): ~455 mg/mL (≈ 2020 mM)
- solubility (physchem [2]; koh in 95% ethanol, organic solvent or mixture): ~540 mg/mL (≈ 2400 mM)
- responses elicited in plants (plant species; general): promotion of cell division, inhibition of respiration, increasing retention of water and drought resistance, enhancing root and top growth with change in root/top ratios as well as shortening plant internodes
- chlorophyll retention (plant species; pre and post harvest commodities): increase chlorophyll retention
- solubility (physchem [3]): 0.062 mg/mL (≈ 0.275 mM)
- efficacy of N^6 BA in presence of iron (turf grasses; large amount of ferrous iron ions): a decrease in the efficacy of N^6 BA
- dissolved concentration in mineral acids ([4]; mineral acids): approximately 5%
- solubility in water ([4]; water): about 0.00044 grams per 100 milliliters

SMILES: O.O.O.O.O.O.O.O=S(=O)([O-])[O-].[Fe+2] [iron, Ferrous sulphate heptahydrate]
- root development (turf grasses; iron to N^6 BA molecular ratio of about 200:1 or greater): substantially decreases root development
- practical concentration of iron in liquid spray concentrates [5]: 5-6%

SMILES: [Ca+2].[OH-].[OH-] [Calcium hydroxide]
- normality of saturated solution [1]: 9.6

SMILES: [OH-].[OH-].[Zn+2] [zinc hydroxide]
- normality of saturated solution [1]: 9.4

SMILES: [Mg+2].[OH-].[OH-] [magnesium hydroxide]
- normality of saturated solution [1]: 8.2
